GI50 and TGI data for eleven compounds are collected here from PubChem BioAssay (NCI).

Among the test systems are UACC-257 melanoma; HOP-92 NSCLC; ACHN renal; SNB-75 CNS; NCI-H23 lung; PC-3 prostate; SK-MEL-2 melanoma.
What all share (experiment): growth of human tumour cells (NCI), 48 h

Several values for one entry are separate records, joined by “and”; a condition that tells them apart may be missing. Equal values may be shown once.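 Exposure lasted 48 hours, with cells grown in 96-well plates and compounds tested at five concentrations. GI50 = concentration required for 50% inhibition of growth. The concentration for full growth arrest is given as TGI.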

For `CC([C@H]1CCC2C3CCC4C(=O)C(NC=O)=CC[C@]4(C)C3CC[C@@]21C)N(C)C` (stereo partly specified), the GI50 in the test with UACC-257 melanoma was 4.24 µM; in the test on HOP-92 NSCLC it was 4.64 µM; in the test with ACHN renal, 4.86 µM; in the test with SNB-75 CNS it was 3.66 µM; in the test with NCI-H23 lung it was 4.42 µM; in the test on PC-3 prostate it was 2.51 µM. Further, the GI50 in the test with SK-MEL-2 melanoma was 7.7 µM. Besides, the TGI in the test on UACC-257 melanoma is 10.4 µM; in the test with HOP-92 NSCLC, 12.7 µM; in the test with ACHN renal it was 17.2 µM; in the test with SNB-75 CNS it was 15.5 µM; in the test with NCI-H23 lung it was 18.7 µM; with PC-3 prostate, 14.5 µM. In the test on SK-MEL-2 melanoma, this compound registered a TGI of 25.2 µM.
For the compound `CCSc1sc(-c2ccc(C)cc2)nc1[P+](c1ccccc1)(c1ccccc1)c1ccccc1`, the GI50 in the test on UACC-257 melanoma was 0.294 µM; with HOP-92 NSCLC, 0.174 µM; with ACHN renal, 0.285 µM; with SNB-75 CNS, 0.192 µM; in the test on NCI-H23 lung, 0.273 µM; in the test with PC-3 prostate, 0.231 µM. Also, the GI50 in the test with SK-MEL-2 melanoma was 0.273 µM. Also, the TGI in the test on UACC-257 melanoma amounted to 1.05 µM; in the test on HOP-92 NSCLC, 0.593 µM; in the test on ACHN renal, 1.01 µM; in the test on SNB-75 CNS it was 0.802 µM; in the test on NCI-H23 lung it was 0.881 µM; with PC-3 prostate, 1.14 µM. The TGI in the test with SK-MEL-2 melanoma turned out to be 0.805 µM.
On to `COC(=O)C1=C(O)C(C(=O)OC)[C@@]2(O)[C@@H](C(=O)OC)C(c3ccccc3C(F)(F)F)C[C@@H]1[C@@H]2C(=O)OC` (stereo partly specified), for which the GI50 was 6.39 µM in the test with UACC-257 melanoma; 15.8 µM with HOP-92 NSCLC; 1.61 µM in the test with ACHN renal; 0.0935 µM in the test on SNB-75 CNS; 3.44 µM in the test with NCI-H23 lung; 6.02 µM in the test with PC-3 prostate. Besides, in the test with SK-MEL-2 melanoma, the GI50 is 19.7 µM. For the same compound, the TGI with UACC-257 melanoma stood at 20.3 µM; with HOP-92 NSCLC it was 37.9 µM; with ACHN renal it was 3.05 µM; with SNB-75 CNS it was 1.53 µM; in the test on NCI-H23 lung, 11.6 µM; in the test on PC-3 prostate, 24.7 µM. In the test on SK-MEL-2 melanoma, the TGI amounted to 36.4 µM.
Consider `COc1ccc(OC)c(-c2cc(-c3ccc(Cl)cc3)nn2-c2ccc(S(N)(=O)=O)cc2)c1`, for which the GI50 in the test with UACC-257 melanoma was 3.98 µM; in the test with HOP-92 NSCLC, 19.2 µM; with NCI-H23 lung, 13.4 µM; with PC-3 prostate, 3.62 µM; in the test with SK-MEL-2 melanoma, 35.1 µM. In addition, the TGI was 16.4 µM in the test with UACC-257 melanoma; 62.5 µM in the test with HOP-92 NSCLC; 28.3 µM in the test with NCI-H23 lung; 15.7 µM in the test on PC-3 prostate; above 100 µM in the test on SK-MEL-2 melanoma.
For `NC(=O)c1ncn(C2CCC(CP(=O)(O)O)C2)c1N` (stereo unspecified), the TGI in the test on UACC-257 melanoma, with HOP-92 NSCLC, in the test on ACHN renal, in the test with SNB-75 CNS, with NCI-H23 lung and in the test with PC-3 prostate was above 100 µM in each case. In addition, the TGI in the test on SK-MEL-2 melanoma is above 100 µM.
Take `CN1CCN(c2nc(C3=C(c4c[nH]c5ccccc45)C(=O)NC3=O)c3ccccc3n2)CC1`: the GI50 with UACC-257 melanoma was 11.2 µM and 15.7 µM; in the test with HOP-92 NSCLC, 30.5 µM and 4.23 µM; in the test on ACHN renal, 14.9 µM and 20.4 µM; with SNB-75 CNS, 4.91 µM and 5.65 µM; in the test on NCI-H23 lung it was 14.8 µM and 17.6 µM; with PC-3 prostate it was 27.2 µM and 18.3 µM. In the test on SK-MEL-2 melanoma, the GI50 is 12.8 µM and 20.2 µM. Besides, the TGI is 23.1 µM and 31.3 µM in the test with UACC-257 melanoma; 65 µM and 17.4 µM in the test with HOP-92 NSCLC; 52.4 µM and > 100 µM in the test on ACHN renal; 17.5 µM and 21.6 µM in the test on SNB-75 CNS; 39.9 µM and 41.4 µM with NCI-H23 lung; 65 µM and 43.6 µM in the test with PC-3 prostate. For the same compound, the TGI with SK-MEL-2 melanoma is 25.8 µM and 38.8 µM.
Turning to `COc1cccc(-n2cnc3c(N/N=C/c4ccncc4)ncnc32)c1`, the GI50 is above 19.7 µM with UACC-257 melanoma; above 10.4 µM in the test on HOP-92 NSCLC; 9.06 µM in the test on ACHN renal; 7.45 µM with SNB-75 CNS; above 25 µM in the test with NCI-H23 lung; above 25 µM with PC-3 prostate. Moreover, the GI50 in the test with SK-MEL-2 melanoma was 11.6 µM. The TGI in the test with UACC-257 melanoma, in the test on HOP-92 NSCLC, in the test on ACHN renal, in the test on SNB-75 CNS, in the test on NCI-H23 lung and with PC-3 prostate was above 25 µM in each case. The same compound showed a TGI in the test on SK-MEL-2 melanoma above 25 µM.
As to `Cc1c(Br)cccc1NC(=O)c1sc2nc3c(cc2c1N)CN(Cc1ccccc1)CC3`, the GI50 is 8.92 µM with UACC-257 melanoma; 0.509 µM in the test with HOP-92 NSCLC; 0.444 µM in the test with ACHN renal; 0.28 µM with SNB-75 CNS; 0.343 µM in the test on NCI-H23 lung; 0.204 µM in the test on PC-3 prostate. Moreover, the GI50 with SK-MEL-2 melanoma is 0.231 µM. The TGI in the test with UACC-257 melanoma was above 50 µM; in the test on HOP-92 NSCLC, 10.7 µM; in the test on ACHN renal, 40 µM; in the test with SNB-75 CNS, 17.1 µM; in the test with NCI-H23 lung it was above 50 µM; with PC-3 prostate it was 22.4 µM. The TGI in the test with SK-MEL-2 melanoma was determined as 15.1 µM.
As for `CC(C)=CCNc1ncnc2c1ncn2C1OC(COP(=O)(O)O)C(O)C1O` (stereo unspecified), the GI50 in the test with UACC-257 melanoma is above 100 µM; with HOP-92 NSCLC it was 1.63 µM; in the test with ACHN renal it was 3.08 µM; with SNB-75 CNS, 2.06 µM; with NCI-H23 lung it was 6.68 µM; in the test with PC-3 prostate, 2 µM. For the same compound, the GI50 in the test on SK-MEL-2 melanoma is 16.3 µM. Further, the TGI in the test with UACC-257 melanoma was above 100 µM; in the test on HOP-92 NSCLC, 5.1 µM; with ACHN renal, above 100 µM; in the test with SNB-75 CNS, 34.1 µM; in the test on NCI-H23 lung, above 100 µM; with PC-3 prostate, 8.22 µM. Also, the TGI with SK-MEL-2 melanoma is 99.8 µM.
Consider `Oc1ccc(Br)cc1CN1CCN(Cc2ccc(Cl)cc2)CC1`, for which the GI50 in the test on UACC-257 melanoma is 16.5 µM; in the test with HOP-92 NSCLC, 11.1 µM; in the test with ACHN renal, 31.7 µM; in the test with SNB-75 CNS it was 27.6 µM; in the test with NCI-H23 lung, 16.5 µM; with PC-3 prostate it was 23.9 µM. Further, the GI50 in the test with SK-MEL-2 melanoma is 13.2 µM. The TGI with UACC-257 melanoma was 59.4 µM; in the test on HOP-92 NSCLC, 72.1 µM; with ACHN renal it was above 100 µM; with SNB-75 CNS, above 100 µM; in the test on NCI-H23 lung, above 100 µM; in the test with PC-3 prostate, above 100 µM. Further, the TGI in the test with SK-MEL-2 melanoma is 40.3 µM.
As to `COc1cc2c(cc1OC)[C@@H]1[C@H](C2=O)c2ccc([N+](=O)[O-])cc2C(=O)N1CCCBr`, the GI50 with UACC-257 melanoma was 0.0737 µM; with HOP-92 NSCLC, 3.15 µM; in the test on SNB-75 CNS, 0.611 µM; in the test with NCI-H23 lung, below 0.01 µM; with PC-3 prostate it was 1.19 µM; in the test with SK-MEL-2 melanoma, 4.62 µM. Moreover, the TGI in the test with UACC-257 melanoma was 0.893 µM; in the test on HOP-92 NSCLC, above 100 µM; in the test with SNB-75 CNS, 12.5 µM; in the test with NCI-H23 lung, 1.8 µM; in the test on PC-3 prostate, above 70.4 µM; in the test with SK-MEL-2 melanoma, above 100 µM.
